Experimental data published in article PMC9561728, “Safety and efficacy of a GLP-1 and glucagon receptor dual agonist mazdutide (IBI362) 9 mg and 10 mg in Chinese adults with overweight or obesity: A randomised, placebo-controlled, multiple-ascending-dose phase 1b trial” (eClinicalMedicine, 2022).
Like-named read-outs stand apart in the source and are kept apart here.

Columns and labels:
[1] = tested on: Chinese adults with overweight or obesity; assay: HbA1c and metabolic parameters, phase 1b trial; format: in vivo, human
Procedure: Secondary outcomes included pharmacokinetics, assessed by maximum observed plasma concentration (Cmax), time at which Cmax was observed (Tmax), terminal elimination half-life (t½), and area under the curve from time zero to 168 h after the first dose (AUC0–168 h) and immunogenicity, assessed by titters of anti-drug antibodies (ADAs) and neutralizing antibodies. Secondary efficacy outcomes included the change from baseline to week 12 (9 mg cohort) or week 16 (10 mg cohort) in body weight, waist circumference, BMI, as well as the change from baseline in HbA1c, lipids, transaminase and serum uric acid levels.
(§1) Summaries for other efficacy and safety variables included descriptive statistics for continuous measures (mean and standard deviation or standard error) and for categorical measures (sample size, frequency and percentages).

[2] = tested on: Chinese adults with overweight or obesity; assay: Treatment-emergent adverse events, phase 1b trial, 9 mg and 10 mg cohorts; conditions: n = 8
Procedure: (§3) The study included a 3-week screening period, a 12-week or 16-week treatment period and an 8-week safety follow-up period. During the treatment period, mazdutide or placebo was subcutaneously administered once weekly with one of the following dose-escalation regimens: 9 mg cohort (3 mg weeks 1-4; 6 mg weeks 5-8; 9 mg weeks 9-12) and 10 mg cohort (2.5 mg weeks 1-4; 5 mg weeks 5-8; 7.5 mg weeks 9-12; 10 mg weeks 13-16) (Figure S1). The escalation regimen in the 10 mg cohort provided relatively slower titration (2.5 mg every 4 weeks) to the target dose of 10 mg, and the escalation regimen in the 9 mg cohort adopted faster titration (3 mg every 4 week). Participants were required to maintain the original diet, exercise and lifestyle during the trial.
(§4) The primary outcomes were safety and tolerability of mazdutide. […] The severity of the TEAEs (mild, moderate or severe) and the association between an event and the study drug was assessed by investigators based on pre-specified criteria.
(§5) Safety analyses were done in the safety population (defined as all participants who received at least one dose of the study treatment).

[3] = Non-compartmental plasma pharmacokinetics, phase 1b trial; format: in vivo; conditions: human; for AUC(0-t) / Cmax: geometric mean (CV%); for AUC(0-t): n = 8, read-out: AUC0-168h; for Tmax: median (range); for Tmax / Cmax: n = 8; for Cmax: non-compartmental
Source text: 6.3 PK/ PD assessment vari ables
6.3.1 PK Sample Collection
PK sampling will be performed according to the Schedule of Visits (Table 2, Table 4, Table 6), PK/PD Sampling Schedule (Table 3- 1, Table 3- 2, Table 5-1, Table 5- 2, Table 7-1, Table 7- 2), and ex aminations will be performed at a central laborator y. 3 m L of whole blood was collected into a […] vacutainer, plasma was separated, aliquoted and stored frozen for PK analysis of IBI362. Details of sampling methods, sample storage, transportation and analysis were provided in the Laboratory Manual provided by the central laboratory designated by the sponsor. […]
• Pharmacokinetic parameters, including but not limited to Tmax, Cmax, product under the concentration- time curve (AUC), volum e of distribution (Vd), half-life (T1/2), clearan ce (C L) an d accumulation co efficient (AR); […]

[4] = Solubility of the study drug; format: physicochemical; conditions: study protocol
Procedure: 5.2.1 Physical and chemical characteristi cs of the study drug
Molecular Weight: 4560.32 Daltons
Description: White to off-white powder
Solubility: Solvent: 20 mM Tris buffer at pH 8.0 and 150 mM sodium chloride.
Solubility: Not less than 10 mg/mL at 25 ℃.
5.2.2 Study Drug Strength and Manufacturer
The IB I362 dru g produ ct is IBI362 for injection an d consists of 2 mg IB I362 and the […]
contents are reconstituted with sterile water for injection to obtain a clear solution of […]
ingredients tris (hydroxymethyl) aminomethane, mannitol, and sucrose." The vial contents are reconstituted with sterile water for injection to obtain a clear solution devoid […]
The dru g product stren gt h used in this stud y was 2 mg/vial, and the placebo strengt h matched the drug product and was provided b y the Sponsor.
The drug product and placebo should be stored under refrigerated conditions (2 ℃ […]
5.2.4 Mode of administration
Both IBI362 and placebo will be administered by subcutaneous injection once a week. Each dose should be prepared and injected by the stud y nurse. See the Instructions for Use fo rdetails of the preparation and use of the study drug.
5.3.1 Prohibited Medications
The following m edicatio ns and measur es ar e cont raindicated:
1. Growth hormone and its analogues;
2. Any systemic corticosteroid (including intravenous, oral, intra-articular) administered for ≥ 7 da ys. […]

[5] = tested on: Chinese adults with overweight or obesity; conditions: in vivo
Procedure: as §3, §4, §5

[6] = tested on: Chinese adults with overweight or obesity; assay: Vital signs and laboratory safety (heart rate, blood pressure, lipase, transaminases), phase 1b trial; format: in vivo, human; conditions: for Mean change from baseline in heart rate (maximum): placebo 4.3
Source text: The primary outcomes were safety and tolerability of mazdutide.
as §1

human GLP-1 receptors = conditions: in vitro; cited from earlier work
Procedure: (§2) Mazdutide (also known as IBI362 or LY3305677) is a once-weekly mammalian oxyntomodulin analogue. […] In a phase 1b clinical trial in Chinese adults with overweight or obesity, mazdutide dosed up to 6 mg achieved 12-week mean body weight loss up to 6.4%.[11] Given the favourable safety profile and the robust body weight loss achieved in the low-dose cohort ...

mice = conditions: cited from earlier work
Procedure: as §2

mouse glucagon receptors = conditions: in vitro; cited from earlier work
Procedure: as §2

[7] = 9 mg cohort, week 12, participants without type 2 diabetes
[8] = 9 mg cohort (sc QW 3/6/9 mg, 4 wk each)
[9] = 10 mg cohort (sc QW 2.5/5/7.5/10 mg, 4 wk each)

CC(C)C[C@H](NC(=O)[C@H](CC(C)C)NC(=O)[C@H](Cc1c[nH]c2ccccc12)NC(=O)[C@H](CCC(=O)O)NC(=O)[C@@H](NC(=O)[C@H](Cc1ccccc1)NC(=O)[C@H](CCC(=O)O)NC(=O)[C@H](CCCCNC(=O)COCCOCCNC(=O)COCCOCCNC(=O)CC[C@H](NC(=O)CCCCCCCCCCCCCCCCCCC(=O)O)C(=O)O)NC(=O)[C@H](C)NC(=O)[C@H](CCCCN)NC(=O)[C@H](CCCCN)NC(=O)[C@H](CCC(=O)O)NC(=O)[C@H](CC(=O)O)NC(=O)[C@H](CC(C)C)NC(=O)[C@H](Cc1ccc(O)cc1)NC(=O)[C@H](CCCCN)NC(=O)[C@H](CO)NC(=O)[C@H](Cc1ccc(O)cc1)NC(=O)[C@H](CC(=O)O)NC(=O)[C@H](CO)NC(=O)[C@@H](NC(=O)[C@H](Cc1ccccc1)NC(=O)[C@@H](NC(=O)CNC(=O)[C@H](CCC(N)=O)NC(=O)C(C)(C)NC(=O)[C@@H](N)Cc1c[nH]cn1)[C@@H](C)O)[C@@H](C)O)C(C)C)C(=O)N[C@@H](CCC(=O)O)C(=O)NCC(=O)NCC(=O)N1CCC[C@H]1C(=O)N[C@@H](CO)C(=O)N[C@@H](CO)C(=O)NCC(N)=O [Mazdutide]
Participants with a 0.4% HbA1c reduction from baseline [1, 7]: three | Participants with a 0.8% HbA1c reduction from baseline [1, 7]: two | Participants with a 0.4% HbA1c reduction from baseline ([1]; 10 mg cohort, week 16, participants without type 2 diabetes): two | Metabolic parameters including triglycerides, low density lipoprotein cholesterol, total cholesterol and serum uric acid ([1]; both dose regimens, compared with placebo): Greater improvements | Non-diabetic participants with slight elevation in end-of-treatment HbA1c levels ([1]; high-dose cohorts): two | TEAE: Infections and infestations (system organ class) [2, 8]: 6 (75.0) n (%) | TEAE: Upper respiratory tract infection [2, 8]: 3 (37.5) n (%) | TEAE: Urinary tract infection [2, 8]: 4 (50) n (%) | TEAE: Infections and infestations (system organ class) [2, 9]: 5 (62.5) n (%) | TEAE: Upper respiratory tract infection [2, 9]: 4 (50) n (%) | TEAE: Urinary tract infection [2, 9]: 2 (25) n (%) | AUC(0-t) ([3]; after first sc dose 2.5 mg): 21800 ng·h/mL | Tmax ([3]; after first sc dose 2.5 mg): 72.3 h | Cmax ([3]; after first sc dose 2.5 mg): 179 ng/mL | AUC(0-t) ([3]; after first sc dose 3 mg): 31400 ng·h/mL | Tmax ([3]; after first sc dose 3 mg): 72.4 h | Cmax ([3]; after first sc dose 3 mg): 226 ng/mL | Solubility ([4]; 20 mM Tris buffer at pH 8.0 and 150 mM sodium chloride, 25 ℃): Not less than 10 mg/mL | Solubility Description [4]: Sparingly or slightly soluble | Participants with treatment-emergent adverse events [5]: 100% | Severity of treatment-emergent adverse events [5]: all mild or moderate in severity | Mean change from baseline in heart rate (maximum) ([6]; 9 mg cohort): up to 17.4 beats per minute | Lipase level in one participant at week 16 ([6]; 10 mg cohort, 153 U/L at baseline, upper limit of normal 300 U/L, returned to normal at safety follow-up): 739 U/L | Mean change from baseline in heart rate (maximum) ([6]; 10 mg cohort): ≤ 11.6 beats per minute | Transaminase elevation in the two participants with ALT/AST increased ([6]; one participant in 9 mg cohort, one in 10 mg cohort): mild (within three times upper limit of normal) and transient | Binding to human GLP-1 receptors (human GLP-1 receptors): potently bound | Body weight (mice; both Gcgr knockout (KO) and Glp1r KO settings): decreased body weight | Energy expenditure (mice): increased energy expenditure | Glucose control (mice): improved glucose control | Binding to mouse glucagon receptors (mouse glucagon receptors): potently bound
